Tests used:
Type in all cases: cell-based
[1] = tested on: LAT; assay: CD3-mediated tyrosine phosphorylation of LAT in Jurkat cells; conditions: 100 μM 3 hours, OKT3
Method: Jurkat T cells (2×10^6−1×10^7) were centrifuged at 1,000×g for 5 minutes, rinsed with RPMI, resuspended in RPMI supplemented with 2% dialyzed FBS, 0.5% defatted BSA, and incubated with or without 100 μM 2-bromopalmitate at 8×10^5 cells/ml for 3 hours. The cells were centrifuged, washed with RPMI and resuspended in RPMI at 1×10^7−1×10^8 cells/ml. The cells were then activated with anti-CD3 OKT3 mAb (0.3 mg/ml) for 3 min at 37° C., quickly spun down, washed once with cold RPMI and once with cold STE, and lysed in RIPA Samples were solubilized in 1× sample buffer containing 5% β-mercaptoethanol and subjected to SDS-PAGE, followed by immunoblotting with anti-phosphotyrosine antibody (PY99). For analysis of specific proteins, RIPA lysates were immunoprecipitated with the specific antibodies O/N, and immunoblotted for phosphotyrosine. Alternatively, proteins were immunoprecipitated with agarose-conjugated anti phosphotyrosine antibody and blotted for the specific proteins.
In order to identify the individual proteins whose tyrosine phosphorylation is affected by 2-bromopalmitate, lysates were immunoprecipitated with a panel of specific antibodies, and immunoblotted for phosphotyrosine. Alternatively, lysates were immunoprecipitated with an antiphosphotyrosine antibody, and blotted with antibodies to specific proteins.

[2] = tested on: Lck; assay: DRM (raft) localization in activated Jurkat cells, sucrose gradient: Lck; conditions: 100 μM 3 hours, OKT3 activated, control 59%
Method: Isolation of Triton X-100 resistant and soluble fractions was carried out as described previously (12). Isolation of detergent resistant microdomains by sucrose gradients were carried out as follows (19): Jurkat cells (5×10^7) were treated with 2-bromopalmitate, activated with OKT3 mAb as described above, and lysed in 1 ml lysis buffer (25 mM MES pH 6.5, 150 mM NaCl, 0.5% Triton X-100, 1 mM Na3VO4) supplemented with protease inhibitors for 30 minutes at 0° C. After homogenizing 10 times with a loose fit Dounce homogenizer, lysates were mixed with 1 ml 85% sucrose in MBS (25 mM MES pH 6.5, 150 mM NaCl), and overlayered with 6 ml 30% sucrose in MBS, then with 4 ml 5% sucrose in MBS. Following centrifugation for 16 hours at 145,000 g in an SW40 rotor, 1 ml fractions were collected and analyzed by PAGE and immunoblotting with anti-Fyn, anti-LAT, or anti-Lck antibodies.
The ability of 2-bromopalmitate to inhibit localization of palmitoylated proteins to detergent resistant microdomains in activated Jurkat cells was examined next. Cells were either left untreated or treated with 100 μM 2-bromopalmitate for 3 hours, washed, resuspended in serum-free media, and the TCR was activated with OKT3 mAb. Activated cells were extracted with Triton X-100 containing buffer. […] Each fraction was analyzed by immunoblotting with specific antibodies. […]

[3] = tested on: Fyn; assay: Subcellular fractionation (P100/S100) of Fyn in COS-1 cells
Method: Each 60 mm plate of Fyn transfected COS-1 cells was starved for […] in DMEM containing 2.5% FBS and 0.5% defatted BSA with or without 100 μM 2-bromopalmitate. After overnight culture at 37° C., the cells were fractionated into P100 and S100 fractions, immunoprecipitated with anti-Fyn antibody, subjected to SDS-PAGE, and immunoblotted with anti-Fyn antibody as previously described (9,12,13).
For analysis of newly synthesized Fyn, cells were cultured overnight as descibed above, then starved for 1 hr in DMEM minus methionine and cysteine containing 2% dialyzed FBS, 0.5% defatted BSA with or without 100 μM 2-bromopalmitate. Cells were labeled for 5 minutes with Trans^35S-Label (ICN, Irvine, Calif.), then fractionated as described above. Gels were treated for 20 minutes with 1M salicylic acid prior to drying. The Gαo(10)-Fyn chimera was labeled for 5 min and GAP-43 Fyn chimera was labeled for 2 hours and fractionated according to the above conditions.
Newly synthesized Fyn becomes plasma membrane bound within 5 minutes after biosynthesis (12). The rapid membrane targeting is dependent on dual fatty acylation of Fyn with myristate and palmitate. The effect of 2-bromopalmitate on the ability of newly synthesized Fyn to localize to membranes was next examined. Transfected COS-1 cells were incubated for 12-16 hours with or without 100 μM 2-bromopalmitate. […]

CCCCCCCCCCCCCCC(Br)C(=O)O (stereo not shown) [2-bromopalmitate]
CD3-mediated tyrosine phosphorylation of LAT [1]: inhibited completely
Lck found in the rafts [2]: 19%
newly synthesized Fyn remaining cytosolic ([3]; COS-1, 100 μM for 12-16 hours, 5 min 35S label, untreated 90% membrane bound): 50%
steady-state Fyn fractionating in the cytosol ([3]; COS-1, 100 μM, Western blot, data not shown): 50%
